Test results as given in patent publication US12037333B2, “Pyridopyrazine and pyridotriazine inhibitors of influenza virus replication” (priority 2018, dated 2024).

System: Influenza type B (cell culture adapted strain B/Lee/40, ATCC VR-1535)
Assay: Influenza antiviral assay: inhibition of virus-induced cytopathic effects (CPE) in MDCK cells, XTT dye reduction
Assay type: cell-based
Settings: Influenza B virus, MDCK, 96 h, strain B/Lee/40, MDCK cells, CPE inhibition at 4 days

Row | SMILES | EC50 [nM]
1 | CC(C)CN1C(=O)c2c(O)c(=O)ccn2N(C23c4ccccc4CC2Cc2c3ccc(F)c2F)C1C (centres unmarked) [Compound A127] | 250 to 375
2 | CC1N(CC2CC2)C(=O)c2c(O)c(=O)ccn2N1C12c3ccccc3CC1Cc1c2ccc(F)c1F (centres unmarked) [Compound A128] | 125 to 250
3 | CC1N(CC2CC2)C(=O)c2c(O)c(=O)ccn2N1C12c3ccccc3CC1Cc1c(F)cccc12 (centres unmarked) [Compound A129] | 125 to 250
4 | O=C1c2c(O)c(=O)ccn2N(C23c4cccc(F)c4CC2Cc2c(F)cccc23)CN1CC1CCCCO1 (centres unmarked) [Compound A130] | 125 to 250
5 | O=C1c2c(O)c(=O)ccn2N(C23c4ccccc4CC2Cc2c3ccc(F)c2F)CN1CC1CCCCO1 (centres unmarked) [Compound A131] | 125 to 250
6 | CCCN1C(=O)c2c(O)c(=O)ccn2N(C23c4ccccc4CC2Cc2c(Cl)cccc23)C1C (centres unmarked) [Compound A132] | 250 to 375
7 | O=C1c2c(O)c(=O)ccn2N(C23c4ccccc4CC2Cc2c(F)cccc23)CN1CC1CCCCO1 (centres unmarked) [Compound A133] | 125 to 250
8 | CC1N(CC(F)F)C(=O)c2c(O)c(=O)ccn2N1C12c3ccccc3CC1Cc1c2ccc(F)c1F (centres unmarked) [Compound A136] | 250 to 375
9 | CCN1C(=O)c2c(O)c(=O)ccn2N(C23c4ccccc4CC2Cc2c(F)cccc23)C1C (centres unmarked) [Compound A138] | < 125
10 | CC1N(CC(F)F)C(=O)c2c(O)c(=O)ccn2N1C12c3ccccc3CC1Cc1c(F)cccc12 (centres unmarked) [Compound A139] | 125 to 250
11 | CC1N(CC2CC2)C(=O)c2c(O)c(=O)ccn2N1C12c3ccccc3CC1Cc1c(Cl)cccc12 (centres unmarked) [Compound A140] | 250 to 375
12 | CC1N(C2CCC2)C(=O)c2c(O)c(=O)ccn2N1C12c3ccccc3CC1Cc1c(F)cccc12 (centres unmarked) [Compound A141] | 250 to 375
13 | Cc1cc(CN2CN(C34c5ccccc5CC3Cc3ccccc34)n3ccc(=O)c(O)c3C2=O)no1 (centres unmarked) [Compound A144] | < 125
14 | CN1CN(C23c4ccccc4CC2Cc2cccc(F)c23)n2ccc(=O)c(O)c2C1=O (centres unmarked) [Compound A145] | < 125
15 | CN1CN(C23c4ccccc4CC2Cc2c3ccc(Cl)c2Cl)n2ccc(=O)c(O)c2C1=O (centres unmarked) [Compound A146] | 125 to 250
16 | CCN1CN(C23c4ccccc4CC2(C)Cc2ccccc23)n2ccc(=O)c(O)c2C1=O (centres unmarked) [Compound A147] | 125 to 250

Row | SMILES | EC50 [nM]
17 | CCCN1CN(C23c4ccccc4CC2Cc2c3ccc(F)c2F)n2ccc(=O)c(O)c2C1=O (centres unmarked) [Compound A148] | 125 to 250
18 | CC(C)CN1CN(C23c4ccccc4CC2Cc2c3ccc(F)c2F)n2ccc(=O)c(O)c2C1=O (centres unmarked) [Compound A149] | < 125
19 | CN1CN(C23c4ccccc4CC2(C)Cc2ccccc23)n2ccc(=O)c(O)c2C1=O (centres unmarked) [Compound A150] | < 125
20 | CCN1CN(C23c4cccc(F)c4CC2Cc2c(Cl)cccc23)n2ccc(=O)c(O)c2C1=O (centres unmarked) [Compound A151] | 125 to 250
21 | CCN1CN(C23c4ccccc4CC2(OC)Cc2ccccc23)n2ccc(=O)c(O)c2C1=O (centres unmarked) [Compound A152] | 125 to 250
22 | CCCN1CN(C23c4cccc(F)c4CC2Cc2c(F)cccc23)n2ccc(=O)c(O)c2C1=O (centres unmarked) [Compound A153] | 125 to 250
23 | CC(C)CN1CN(C23c4cccc(F)c4CC2Cc2c(F)cccc23)n2ccc(=O)c(O)c2C1=O (centres unmarked) [Compound A156] | 125 to 250
24 | CCN1CN(C23c4ccccc4CC2(CC)Cc2ccccc23)n2ccc(=O)c(O)c2C1=O (centres unmarked) [Compound A157] | 125 to 250
25 | CC1N(C)C(=O)c2c(O)c(=O)ccn2N1C12c3ccccc3CC1Cc1ccccc12 (centres unmarked) [Compound A158] | 125 to 250
26 | CN1CN(C23c4ccccc4CC2Cc2c3ccc(Cl)c2F)n2ccc(=O)c(O)c2C1=O (centres unmarked) [Compound A160] | < 125
27 | CCN1CN(C23c4ccccc4CC2Cc2c3ccc(Cl)c2Cl)n2ccc(=O)c(O)c2C1=O (centres unmarked) [Compound A161] | < 125
28 | CCC12Cc3ccccc3C1(N1CN(C)C(=O)c3c(O)c(=O)ccn31)c1ccccc1C2 (centres unmarked) [Compound A162] | < 125
29 | CCN1CN(C23c4ccccc4CC2(C)Cc2c3ccc(F)c2F)n2ccc(=O)c(O)c2C1=O (centres unmarked) [Compound A164] | < 125
30 | CN1CN(C23c4ccccc4CC2(C)Cc2c3ccc(F)c2F)n2ccc(=O)c(O)c2C1=O (centres unmarked) [Compound A165] | < 125
31 | CCC1N(C)C(=O)c2c(O)c(=O)ccn2N1C12c3ccccc3CC1Cc1ccccc12 (centres unmarked) [Compound A166] | < 125
32 | CC(C)N1CN(C23c4ccccc4CC2(C)Cc2c3ccc(F)c2F)n2ccc(=O)c(O)c2C1=O (centres unmarked) [Compound A167] | < 125
